Source: patent publication US5512553A, “7-(substituted)-8-(substituted)-9-(substituted amino)-6-demethyl-6-deoxytetracyclines” (American Cyanamid Company, priority 1995, dated 1996)
In brackets after ≈: the same amount, converted by molar mass. Where a name gives a salt, the structure may show the parent alone. Read-outs that look alike come from different tables or passages of the source.

What was measured:
[1] = test system: Enteroc. spp. 12201; test: In vitro antibacterial evaluation, MIC by agar dilution; format: cell-based
Procedure: (§1) Method for In Vitro Antibacterial Evaluation (Table I)
(§2) The minimum inhibitory concentration (MIC), the lowest concentration of the antibiotic which inhibits growth of the test organism, is determined by the agar dilution method using Muller-Hinton II agar (Baltimore Biological Laboratories). An inoculum density of 1-5×10^5 CFU/ml and an antibiotic concentration (32-≤0.015 μg/ml) is used. The plates are incubated for 18 hours at 35° C. in a forced air incubator. The test organisms comprise strains sensitive to tetracycline and genetically defined strains that are resistant to tetracycline, due to inability to bind bacterial ribosomes (tetM).

[2] = test system: E. coli UBMS 88-2 (sensitive); test: as above; format: cell-based; conditions: Escherichia coli
Procedure: as §1, §2

[3] = test system: S. aureus SMITH (MP) (sensitive); test: as above; format: cell-based; conditions: Staphylococcus aureus
Procedure: as §1, §2

[4] = test system: E. coli UBMS 89-2 (sensitive); test: as above; format: cell-based; conditions: Escherichia coli, Muller-Hinton II agar, 18 hours at 35° C.
Procedure: as §1, §2

[5] = test system: S. aureus IVES 2943 (meth. resistant); test: as above; format: cell-based; conditions: Staphylococcus aureus
Procedure: as §1, §2

[6] = test system: S. aureus IVES 1983 (MP) (meth. resistant); test: as above; format: cell-based; conditions: Staphylococcus aureus
Procedure: as §1, §2

[7] = test system: S. aureus UBMS 90-3 (sensitive); test: as above; format: cell-based; conditions: Staphylococcus aureus
Procedure: as §1, §2

[8] = test system: S. faecal. ATCC 29212; test: as above; format: cell-based
Procedure: as §1, §2

[9] = test system: S. aureus ATCC 29213 (sensitive); test: as above; format: cell-based; conditions: Staphylococcus aureus, ATCC29213; agar dilution, Muller-Hinton II agar, 18 hours at 35° C.; S. aureus ATCC 29213 (sensitive); read-out: MIC
Procedure: as §1, §2

[10] = test system: E. coli ATCC 25922; test: as above; format: cell-based; conditions: Escherichia coli
Procedure: as §1, §2

[11] = test system: S. haemol. AVAH 88-3; test: as above; format: cell-based
Procedure: as §1, §2

[12] = test system: S. aureus UBMS 88-4 (sensitive); test: as above; format: cell-based; conditions: Staphylococcus aureus
Procedure: as §1, §2

[13] = test system: S. aureus UBMS 90-2 (tetM); test: microbe, parasite or virus in culture; format: cell-based; conditions: Staphylococcus aureus, 18 h
Procedure: as §1, §2

[14] = test system: E. coli UBMS 89-1 (tetM); test: microbe, parasite or virus in culture; format: cell-based; conditions: Escherichia coli, 18 h
Procedure: as §1, §2

[15] = test system: S. aureus UBMS 90-1 (tetM); test: microbe, parasite or virus in culture; format: cell-based; conditions: Staphylococcus aureus, 18 h
Procedure: as §1, §2

[16] = test system: S. aureus UBMS 88-7 (tetK); test: microbe, parasite or virus in culture; format: cell-based; conditions: Staphylococcus aureus, 18 h
Procedure: as §1, §2

[17] = test system: S. aureus UBMS 88-5 (tetM); test: microbe, parasite or virus in culture; format: cell-based; conditions: Staphylococcus aureus, 18 h
Procedure: as §1, §2

[18] = test system: E. coli UBMS 88-1 (tetB); test: microbe, parasite or virus in culture; format: cell-based; conditions: Escherichia coli, 18 h
Procedure: as §1, §2

[19] = test system: S30 extract from derivative of E. coli MRE 600 containing the tetM determinant; test: E. coli in vitro cell free protein translation system, TetM S30; format: biochemical; conditions: for % Inhibition TetM S30: 35S-methionine incorporation, 30 minutes at 37° C.
Description: (§3) E. coli in Vitro protein Translation System (Table II)
(§4) An in vitro, cell free, protein translation system using extracts from E. coli strain MRE 600 (tetracycline sensitive) and a derivative of MRE 600 containing the tetM determinant has been developed based on literature methods J. M. Pratt, Coupled Transcription-translation in Prokaryotic Cell-free Systems, Transcription and Translation, a Practical Approach, (B. D. Hames and S. J. Higgins, eds) p. 179-209, IRL Press, Oxford-Washington, 1984!.
(§5) Using the system described above, the tetracycline compounds of the present invention are tested for their ability to inhibit protein synthesis in vitro. Briefly, each 10 μl reaction contains S30 extract (a whole extract) made from either tetracycline sensitive cells or an isogenic tetracycline resistant (tetM) strain, low molecular weight components necessary for transcription and translation (i.e., ATP and GTP), a mix of 19 amino acids (no methionine), ^35 S labeled methionine, DNA template (either pBR322 or pUC119), and either DMSO (control) or the novel tetracycline compound to be tested ("novel TC") dissolved in DMSO.
(§6) The reactions are incubated for 30 minutes at 37° C. Timing is initiated with the addition of the S30 extract, the last component to be added. After 30 minutes, 2.5 μl of the reaction is removed and mixed with 0.5 ml of 1N NaOH to destroy RNA and tRNA. Two to three ml of 25% trichloroacetic acid is added and the mixture incubated at room temperature for 15 minutes. The trichloroacetic acid precipitated material is collected on Whatman GF/C filters and washed with a solution of 10% trichloroacetic acid. The filters are dried and the retained radioactivity, representing incorporation of ^35 S-methionine into polypeptides, is counted using standard liquid scintillation methods.
(§7) The percent inhibition (P.I.) of protein synthesis is determined to be: [formula]

[20] = test system: S30 extract from E. coli strain MRE 600 (tetracycline sensitive); test: E. coli in vitro cell free protein translation system, Wild Type S30; format: biochemical; conditions: for % Inhibition Wild Type S30: 35S-methionine incorporation, 30 minutes at 37° C.
Description: as §3, §4, §5, §6, §7

[21] = agar dilution, Muller-Hinton II agar, 18 hours at 35° C., S. aureus SMITH (MP) (sensitive), read-out: MIC
[22] = ATCC25922, agar dilution, Muller-Hinton II agar, 18 hours at 35° C., E. coli ATCC 25922, read-out: MIC
[23] = agar dilution, Muller-Hinton II agar, 18 hours at 35° C., S. haemol. AVAH 88-3, read-out: MIC
[24] = agar dilution, Muller-Hinton II agar, 18 hours at 35° C., S. aureus UBMS 88-4 (sensitive), read-out: MIC
[25] = agar dilution, Muller-Hinton II agar, 18 hours at 35° C., Enteroc. spp. 12201, read-out: MIC
[26] = agar dilution, Muller-Hinton II agar, 18 hours at 35° C., S. faecal. ATCC 29212, read-out: MIC
[27] = agar dilution, Muller-Hinton II agar, 18 hours at 35° C., S. aureus UBMS 90-3 (sensitive), read-out: MIC

| Structure (SMILES) | MIC ([1]; 18 h) | MIC [3, 21] | MIC [4] | MIC ([5]; 18 h) | MIC ([6]; 18 h) | MIC ([8]; 18 h) | MIC [9] | MIC [10, 22] | MIC [11, 23] | MIC [12, 24] | MIC [13] | MIC [14] | MIC [15] | MIC [16] | MIC [17] | MIC [18] | MIC [1, 25] | MIC ([2]; 18 h) | MIC [8, 26] | MIC ([10]; ATCC25922, 18 h) | also measured |
| --- | --- | --- | --- | --- | --- | --- | --- | --- | --- | --- | --- | --- | --- | --- | --- | --- | --- | --- | --- | --- | --- |
| CN(C)[C@@H]1C(O)=C(C(N)=O)C(=O)[C@@]2(O)C(O)=C3C(=O)c4c(O)cc(Cl)c(N)c4CC3CC12 (some centres unmarked) [Compound C, 7-Amino-8-chloro-4-(dimethylamino)-1,4-4a,5,5a,6,11,12a-octahydro-3,10,12,12a-tetrahydroxy-1,11-dioxo-2-naphthacenecarboxamide hydrochloride] | 32 µg/mL | 0.25 µg/mL | 4 µg/mL | > 32 µg/mL | > 32 µg/mL | 8 µg/mL | 0.12 µg/mL | 2 µg/mL | 1 µg/mL | 0.5 µg/mL | 8 µg/mL | 32 µg/mL | 32 µg/mL | > 32 µg/mL | 32 µg/mL | > 32 µg/mL |  |  |  |  | MIC ([2]; agar dilution, Muller-Hinton II agar, 18 hours at 35° C., E. coli UBMS 88-2 (sensitive), read-out: MIC): 2 µg/mL; MIC ([7]; 18 h): 0.12 µg/mL |
| CN(C)[C@@H]1C(O)=C(C(N)=O)C(=O)[C@@]2(O)C(O)=C3C(=O)c4c(O)cc(Cl)cc4CC3CC12 (some centres unmarked) [Compound E, 8-Chloro-4-(dimethylamino)-1,4,4a,5,5a,6-11,12a-octahydro-3,10,12,12a-tetrahydroxy-1,11-dioxo-2-naphthacenecarboxamide sulfate] |  | 0.12 µg/mL | 16 µg/mL | 4 µg/mL | 4 µg/mL |  | 0.03 µg/mL |  | 0.5 µg/mL |  | 1 µg/mL | 16 µg/mL | 2 µg/mL | 4 µg/mL | 2 µg/mL | > 32 µg/mL | 1 µg/mL | 16 µg/mL | 2 µg/mL | 8 µg/mL | MIC ([12]; 18 h): 0.25 µg/mL |
| CN(C)[C@@H]1C(O)=C(C(N)=O)C(=O)[C@@]2(O)C(O)=C3C(=O)c4c(O)cc(Cl)c([N+]#N)c4CC3CC12 (stereo partly drawn) [D, 8-(Aminocarbonyl)-2-chloro-10-(dimethylamino)-5,6a,10,10a,11,11a,12-octahydro-5,7-dioxo-l-naphthacenediazonium chloride] |  | 0.5 µg/mL | 32 µg/mL |  |  |  | 0.12 µg/mL | 16 µg/mL |  |  | 2 µg/mL | 32 µg/mL | 4 µg/mL | 8 µg/mL | 4 µg/mL | > 32 µg/mL | 2 µg/mL | 32 µg/mL | 2 µg/mL |  | MIC ([5]; agar dilution, Muller-Hinton II agar, 18 hours at 35° C., S. aureus IVES 2943 (meth. resistant), read-out: MIC): 16 µg/mL; MIC ([6]; agar dilution, Muller-Hinton II agar, 18 hours at 35° C., S. aureus IVES 1983 (MP) (meth. resistant), read-out: MIC): 16 µg/mL; MIC ([11]; 18 h): 1 µg/mL |
| CN(C)[C@@H]1C(O)=C(C(N)=O)C(=O)[C@@]2(O)C(O)=C3C(=O)c4c(cc(Cl)c(N)c4O)CC3CC12 (some centres unmarked) [G, 9-Amino-8-chloro-4-(dimethylamino)-1,4,-4a,5,5a,6,11,12a-octahydro-3,10,12,12a-tetrahydroxy-1,11-dioxo-2-naphthacenecarboxamide] | 2 µg/mL (≈ 4.31 µM) | < 0.015 µg/mL | 4 µg/mL (≈ 8.62 µM) | 8 µg/mL (≈ 17.2 µM) | 8 µg/mL (≈ 17.2 µM) | 0.25 µg/mL (≈ 0.539 µM) | < 0.015 µg/mL |  | 0.12 µg/mL (≈ 0.259 µM) | < 0.015 µg/mL | 0.25 µg/mL (≈ 0.539 µM) |  | 1 µg/mL (≈ 2.16 µM) | 2 µg/mL (≈ 4.31 µM) | 1 µg/mL (≈ 2.16 µM) | > 32 µg/mL |  | 4 µg/mL (≈ 8.62 µM) |  | 1 µg/mL (≈ 2.16 µM) | MIC [7, 27]: < 0.015 µg/mL |
| COC(=O)Nc1c(Cl)cc2c(c1O)C(=O)C1=C(O)[C@]3(O)C(=O)C(C(N)=O)=C(O)[C@@H](N(C)C)C3CC1C2 (stereo partly drawn) [I, 7S-(7alpha, 10aalpha)!- 9-(Aminocarbonyl)-3-chloro-7-(dimethylamino)-5,5a,6-6a,7,10,10a,12-octahydro-1,8,10a,11-tetrahydroxy-10,12-dioxo-2-naphthacenyl!-carbamic acid methyl ester] | 2 µg/mL (≈ 3.83 µM) |  | 16 µg/mL (≈ 30.7 µM) | 4 µg/mL (≈ 7.66 µM) | 4 µg/mL (≈ 7.66 µM) | 0.5 µg/mL (≈ 0.958 µM) | < 0.015 µg/mL |  |  |  | 0.5 µg/mL (≈ 0.958 µM) | 8 µg/mL (≈ 15.3 µM) | 0.5 µg/mL (≈ 0.958 µM) | 2 µg/mL (≈ 3.83 µM) | 0.5 µg/mL (≈ 0.958 µM) | > 32 µg/mL |  |  |  | 8 µg/mL (≈ 15.3 µM) | MIC ([3]; 18 h): 0.06 µg/mL (≈ 0.115 µM); MIC ([7]; 18 h): 0.06 µg/mL (≈ 0.115 µM); MIC ([11]; 18 h): 0.5 µg/mL (≈ 0.958 µM); MIC ([12]; 18 h): 0.06 µg/mL (≈ 0.115 µM) |
| CN(C)c1ccc(O)c2c1C[C@H]1C[C@H]3[C@H](N(C)C)C(O)=C(C(N)=O)C(=O)[C@@]3(O)C(O)=C1C2=O [L, Minocycline hydrochloride, reference compound] |  | 0.03 µg/mL | 1 µg/mL | 4 µg/mL | 4 µg/mL |  | ≤ 0.015 µg/mL | 0.5 µg/mL |  | 0.03 µg/mL | 4 µg/mL | 8 µg/mL | 4 µg/mL |  | 4 µg/mL | 16 µg/mL | 8 µg/mL | 0.25 µg/mL | 1 µg/mL |  | % Inhibition TetM S30 ([19]; Conc. 0.1 mg/ml): 0%; % Inhibition TetM S30 ([19]; Conc. 0.3 mg/ml): 0%; % Inhibition TetM S30 ([19]; Conc. 1.0 mg/ml, hydrochloride): 19%; % Inhibition TetM S30 ([19]; Conc. 1.0 mg/ml, listed as minocycline, hydrochloride): less than 20%; inhibition of protein synthesis, in words ([19]; cell-free extracts from strain MRE600 (tetM)): resistant; % Inhibition Wild Type S30 ([20]; Conc. 0.1 mg/ml): 66%; % Inhibition Wild Type S30 ([20]; Conc. 0.3 mg/ml, hydrochloride): 91%; % Inhibition Wild Type S30 ([20]; Conc. 1.0 mg/ml): 90%; inhibition of protein synthesis, in words ([20]; cell-free extracts from tetracycline susceptible strain MRE600): inhibited; MIC [7, 27]: 0.03 µg/mL |
